{
  "source": "paper PMC11203978",
  "about": "“Discovery of Di(het)arylmethane and Dibenzoxanthene Derivatives as Potential Anticancer Agents” (International Journal of Molecular Sciences, 2024)",
  "key": {"[1]": {"tested_on": "PA-1", "assay": "MTT cytotoxicity, PA-1", "type": "cell-based", "settings": "Homo sapiens, read-out: IC50 (µM) Cancer Cell Lines PA-1", "text": "(§1) Cells and Materials. For the experiments, we used tumor cell cultures M-HeLa clone 11 (epithelioid carcinoma of the cervix, subline HeLa, clone M-HeLa), HuTu 80, human duodenal adenocarcinoma, Hep-2, human epithelial cells, SH-SY5Y, human neuroblast-like cells, A549, human lung adenocarcinoma, PA-1, human ovarian teratocarcinoma and MCF-7, a human mammary ductal adenocarcinoma from the collection of the Institute of Cytology, Russian Academy of Sciences (St. Petersburg, Russia); human liver cells (Chang liver) were from the collection and the Research Institute of Virology of the Russian Academy of Medical Sciences (Moscow, Russia).\n(§2) MTT Assay. The cytotoxic effect on cells was determined using the colorimetric method of cell proliferation—the MTT test. NADP-H-dependent cellular oxidoreductase enzymes can, under certain conditions, reflect the number of viable cells. These enzymes reduce the tetrazolium dye (MTT) 3-(4,5-dimethylthiazol-2-yl)-2,5-diphenyl-tetrazolium bromide to insoluble blue-violet formazan, which crystallizes inside the cell. The amount of formed formazan is proportional to the number of cells with active metabolism. […] Optical density was recorded at 540 nm on an Invitrologic microplate reader (Novosibirsk, Russia). […]\n(§3) Statistical analysis. The IC50 values were calculated using the MLA–Quest Graph™ IC50 Calculator (AAT Bioquest, Inc., Sunnyvale, CA, USA), 14 February 2022. […]"}, "[2]": {"tested_on": "M-HeLa", "assay": "MTT cytotoxicity, M-HeLa", "type": "cell-based, human", "settings": "Homo sapiens, M-HeLa; MTT, 48 h incubation; read-out: IC50 (µM) Cancer Cell Lines M-HeLa", "text": "as §1\n(§4) MTT Assay. The cytotoxic effect on cells was determined using the colorimetric method of cell proliferation—the MTT test. NADP-H-dependent cellular oxidoreductase enzymes can, under certain conditions, reflect the number of viable cells. These enzymes reduce the tetrazolium dye (MTT) 3-(4,5-dimethylthiazol-2-yl)-2,5-diphenyl-tetrazolium bromide to insoluble blue-violet formazan, which crystallizes inside the cell. The amount of formed formazan is proportional to the number of cells with active metabolism. Cells were seeded on a 96-well Nunc plate at a concentration of 5 × 10^3 cells per well in a volume of 100 μL of medium and cultured in a CO2 incubator at 37 °C until a monolayer was formed. After the nutrient medium was removed, 100 µL of the test drug solutions at the given dilutions were added to the wells, which were prepared directly in the nutrient medium with the addition of 5% DMSO to improve solubility. After 48 h of incubation of the cells with the tested compounds, the nutrient medium was removed from the plates and 100 µL of the nutrient medium without serum with MTT at a concentration of 0.5 mg/mL was added and incubated for 4 h at 37 °C. Formazan crystals were added 100 µL of DMSO to each well. Optical density was recorded at 540 nm on an Invitrologic microplate reader (Novosibirsk, Russia). The experiments for all compounds were repeated three times.\n(§5) Statistical analysis. The IC50 values were calculated using the MLA–Quest Graph™ IC50 Calculator (AAT Bioquest, Inc., Sunnyvale, CA, USA), 14 February 2022. Statistical analysis was performed with the Mann–Whitney test (p < 0.05). Tabular and graphical data contain averages and standard error."}, "[3]": {"tested_on": "HuTu 80 cells", "assay": "Induction of apoptosis, flow cytometry (annexin V-Alexa Fluor 647 / propidium iodide)", "type": "cell-based, human", "settings": "IC50/2 and IC50, 24 h", "method": "The ability of the new compounds, proposed as antitumor agents, to induce cell death via apoptosis is a critical feature for their potential use in therapy. The apoptosis-inducing effects of lead compounds were investigated using flow cytometry at IC50/2 and IC50 concentrations on the HuTu 80 cell line (Figure 6A).\n(§6) Cell Culture. HuTu 80 cells at 1 × 10^6 cells/well in a final volume of 2 mL were seeded into six-well plates. After 48 h of incubation, various concentrations of lead compounds were added to wells.\nCell Apoptosis Analysis. The cells were harvested at 2000 rpm for 5 min and were then washed twice with ice-cold PBS, and resuspended in binding buffer. Next, the samples were incubated with 5 μL of annexin V-Alexa Fluor 647 (Sigma-Aldrich, St Louis, MO, USA) and 5 μL of propidium iodide for 15 min at room temperature in the dark. Finally, the cells were analyzed using flow cytometry (Guava easy Cyte, MERCK, Rahway, NJ, USA) within 1 h. The experiments were repeated three times."}, "[4]": {"tested_on": "SH-SY5Y", "assay": "MTT cytotoxicity, SH-SY5Y", "type": "cell-based", "settings": "Homo sapiens, read-out: IC50 (µM) Cancer Cell Lines SH-SY5Y", "text": "as §1, §2, §3"}, "[5]": {"tested_on": "Chang Liver", "assay": "MTT cytotoxicity, normal Chang liver cells", "type": "cell-based, human", "settings": "Homo sapiens, Chang liver, 48 h incubation, read-out: IC50 (µM) Normal Cell Line Chang Liver", "text": "as §1, §4, §5"}, "[6]": {"tested_on": "HuTu 80 cells", "assay": "Intracellular ROS, CellROX Deep Red flow cytometry", "type": "cell-based, human", "settings": "IC50/2 and IC50", "method": "The apoptosis via the mitochondrial pathway also increases the production of reactive oxygen species (ROS). As mitochondria itself becomes the target of ROS, an increase in their production disrupts mitochondrial functions and culminates in irreversible cell damage. Therefore, the effect of lead compounds 6a and 5a at IC50/2 and IC50 concentrations on ROS production in HuTu 80 cells was evaluated using flow cytometry. […] Such an effect is not observed for intact cells in the presence of both compounds, indicating an increase in ROS production in cancer tissues.\nDetection of Intracellular ROS. HuTU 80 cells were incubated with lead compounds at concentrations of IC50/2 and IC50 for 48 h. ROS generation was investigated using flow cytometry assay and CellROX® Deep Red flow cytometry kit. For this purpose, […] cells were harvested at 2000 rpm for 5 min and then washed twice with ice-cold PBS, followed by resuspension in 0.1 mL of medium without FBS, to which was added 0.2 μL of CellROX® Deep Red, which was followed by incubation at 37 °C for 30 min. The cells were washed three times and suspended in PBS. After that, the production of ROS in the cells was immediately monitored using flow cytometer (Guava easy Cyte, MERCK, Rahway, NJ, USA)."}, "[7]": {"tested_on": "HuTu 80", "assay": "MTT cytotoxicity, HuTu 80", "type": "cell-based, human", "settings": "for IC50: MTT, 48 h incubation, read-out: IC50 (µM) Cancer Cell Lines HuTu 80", "text": "as §1, §4, §5"}, "[8]": {"tested_on": "HuTu 80 cells", "assay": "Mitochondrial membrane potential, JC-10 flow cytometry", "type": "cell-based, human", "settings": "24 h treatment, IC50/2 and IC50", "method": "In this study, we used the fluorescent dye JC-10 from the Mitochondria Membrane Potential Kit (Sigma, St. Louis, MO, USA). Changes in mitochondrial membrane potential under the influence of lead compounds 5a and 6a were determined at IC50/2 and IC50 concentrations on the HuTu 80 cell line. When JC-10 accumulates in the mitochondrial matrix, it forms fluorescent J-aggregates. Their red fluorescence is characteristic for normal cells with high mitochondrial membrane potential. The reduction in mitochondrial membrane potential in apoptotic cells allows JC-10 to escape out of the mitochondria in a monomeric form which has green fluorescence. The mitochondrial membrane potential of HuTu 80 cells is decreased after 24 h treatment with the lead compounds 5a and 6a. The change becomes more pronounced as the concentrations of the tested compounds approach IC50 (Figure 7).\nas §6\nMitochondrial Membrane Potential. […] After the cells were rinsed three times and suspended in PBS, the JC-10 fluorescence was observed using flow cytometry (Guava easy Cyte, MERCK, Rahway, NJ, USA)."}, "[9]": {"tested_on": "Hep-2", "assay": "MTT cytotoxicity, Hep-2", "type": "cell-based", "settings": "Homo sapiens, read-out: IC50 (µM) Cancer Cell Lines Hep-2", "text": "as §1, §2, §3"}, "[10]": {"tested_on": "MCF-7", "assay": "MTT cytotoxicity, MCF-7", "type": "cell-based", "settings": "Homo sapiens, MCF7, read-out: IC50 (µM) Cancer Cell Lines MCF-7", "text": "as §1, §2, §3"}, "[11]": {"tested_on": "A549", "assay": "MTT cytotoxicity, A549", "type": "cell-based", "settings": "Homo sapiens, read-out: IC50 (µM) Cancer Cell Lines A549", "text": "as §1, §2, §3"}},
  "note": "Like-named read-outs stand apart in the source and are kept apart here.",
  "data": [
    {"compound": "Cc1cc(O)c(C(CCNC(=O)CCl)c2c(O)cc(C)oc2=O)c(=O)o1", "note": "[Compound 5a]", "values": [
      {"measurement": "IC50", "setting": "[1]", "value": "80.2 ± 4.05", "unit": "µM"},
      {"measurement": "IC50", "setting": "[2]", "value": "56.2 ± 4.7", "unit": "µM"},
      {"measurement": "apoptosis-inducing effect (in words)", "setting": "[3]", "value": "apoptotic effects increase at the early apoptosis stage"},
      {"measurement": "IC50", "setting": "[4]", "value": "75.8 ± 2.84", "unit": "µM"},
      {"measurement": "IC50", "setting": "[5]", "value": "139 ± 11", "unit": "µM"},
      {"measurement": "ROS production, CellROX Deep Red fluorescence intensity (in words)", "setting": "[6]", "value": "significant reliable increase"},
      {"measurement": "IC50", "setting": "[7]; Homo sapiens, HuTu80, 48 h", "value": 1.7, "unit": "µM"},
      {"measurement": "times more effective / more cytotoxic than the reference drug sorafenib", "setting": "[7]; HuTu 80", "value": 1.7},
      {"measurement": "IC50", "setting": "[7]", "value": "1.9 ± 0.2", "unit": "µM"},
      {"measurement": "mitochondrial membrane potential (in words)", "setting": "[8]", "value": "decreased"},
      {"measurement": "IC50", "setting": "[9]", "value": "65.8 ± 1.18", "unit": "µM"},
      {"measurement": "IC50", "setting": "[10]", "value": "85.6 ± 3.12", "unit": "µM"},
      {"measurement": "IC50", "setting": "[11]", "value": "82.1 ± 3.56", "unit": "µM"}
    ]}
  ]
}
